Results published in patent US11976084B2, “Spiropyrrolidine derived antiviral agents” (Enanta Pharmaceuticals, Inc., priority 2020, dated 2024).

The molecules below were run against SARS-CoV-2 3CL-protease (Severe acute respiratory syndrome coronavirus 2, UniProt P0DTD1) (assay: SARS-CoV-2 3C-like (3CL) protease fluorescence assay (FRET)). Conditions: recombinant SARS-CoV-2 3CL-protease 10 nM, 30 min preincubation at RT, TAMRA-[…]-Dabcyl-OH substrate, run in duplicate.
Type: biochemical
Procedure: SARS-CoV-2 3C-like (3CL) protease fluorescence assay (FRET): Recombinant SARS-CoV-2 3CL-protease was expressed and purified. TAMRA-[…]-Dabcyl-OH peptide 3CLpro substrate was synthesized. Black, low volume, round-bottom, 384 well microplates were used. In a typical assay, 0.85 μL of test compound was dissolved in DMSO then incubated with SARS-CoV-2 3CL-protease (10 nM) in 10 μL assay buffer (50 mM HEPES [pH 7.5], 1 mM DTT, 0.01% BSA, 0.01% Triton-X 100) for 30 min at RT. Next, 10 μL of 3CL-protease substrate (40 μM) in assay buffer was added and the assays were monitored continuously for 1 h in an Envision multimode plate reader operating in fluorescence kinetics mode with excitation at 540 nm and emission at 580 nm at RT. No compound (DMSO only) and no enzyme controls were routinely included in each plate. All experiments were run in duplicate. Data Analysis: SARS-CoV-2 3CL-protease enzyme activity was measured as initial velocity of the linear phase (RFU/s) and normalized to controlled samples DMSO (100% activity) and no enzyme (0% activity) to determine percent residual activity at various concentrations of test compounds (0-10 μM). Data were fitted to normalized activity (variable slope) versus concentration fit in GraphPad Prism 7 to determine IC50.

Row | SMILES | IC50 [nM]
1 | CC1(C)[C@@H]2[C@@H](C(=O)N3C[C@]4(C[C@H]3C#N)C(=O)Nc3ccccc34)N(C(=O)c3cc4c(OC(F)F)cccc4[nH]3)C[C@@H]21 [Example 8] | 100 to 1000
2 | COc1cccc2[nH]c(C(=O)N3[C@@H]4C[C@@H]4C[C@H]3C(=O)N3C[C@]4(C[C@H]3C#N)C(=O)Nc3ccccc34)cc12 [Example 5] | < 100
3 | COc1cccc2[nH]c(C(=O)N3C[C@@]4(C[C@H]3C(=O)N3C[C@]5(C[C@H]3C#N)C(=O)Nc3ccccc35)CC4(F)F)cc12 [Example 4] | 100 to 1000
4 | N#C[C@@H]1C[C@@]2(CN1C(=O)[C@@H]1[C@H]3CCC[C@H]3CN1C(=O)c1cc3c(F)cc(F)cc3[nH]1)C(=O)Nc1ccccc12 [Example 7] | 100 to 1000
5 | COc1cccc2oc(C(=O)N3C[C@H]4[C@@H]([C@H]3C(=O)N3C[C@]5(C[C@H]3C#N)C(=O)Nc3ccccc35)C4(C)C)cc12 [Example 3] | < 100
6 | COc1cccc2[nH]c(C(=O)N3CC4(CC4)C[C@H]3C(=O)N3C[C@]4(C[C@H]3C#N)C(=O)Nc3ccccc34)cc12 [Example 2] | 100 to 1000
7 | N#C[C@@H]1C[C@@]2(CN1C(=O)[C@@H]1[C@H]3CCC[C@H]3CN1C(=O)OCc1ccccc1)C(=O)Nc1ccccc12 [Example 6] | 100 to 1000
8 | COc1cccc2[nH]c(C(=O)N3C[C@@H]4CCC[C@@H]4[C@H]3C(=O)N3C[C@]4(C[C@H]3C#N)C(=O)Nc3ccccc34)cc12 [Example 1] | < 100
